Details: polymer system of polydimethylsiloxane vinyl terminated at various viscosity and a range of platinum-mono, di, tri and/or tetramethyldisiloxane complex
Text: The composition for the example may be as follow: polymer part: polydimethylsiloxane, vinyldimethyl terminated, any viscosity; and/or polydimethylsiloxane, vinylmonomethyl terminated, any viscosity. The cross-linker part: polydimethylsiloxane, any viscosity; and or polymonomethylsiloxane, any viscosity. Platinum catalyst part and/or cross-linker part: platinum; and/or platinum-divinyltetramethyldisiloxane complex in xylene, 2-3% Pt; and/or platinum-divinyltetramethyldisiloxane complex in vinyl terminated polydimethylsiloxane, 2-3% Pt; and/or platinum-divinyltetramethyldisiloxane complex in vinyl terminated polydimethylsiloxane, ˜1% Pt; platinum-Cyclovinylmethylsiloxane complex, 2-3% Pt in cyclic vinyl methyl siloxane.
These components may be combined in different ratios to make the polymer. […] The amount of vinyl siloxane cross-linker may determine the rate of the drug release and diffusivity of the polymer to the drug.

Q: Which release profile does the source give for `CC(=O)O[C@H]1C(=O)[C@@]2(C)[C@H]([C@H](OC(=O)c3ccccc3)[C@]3(O)C[C@H](OC(=O)[C@H](O)[C@@H](NC(=O)c4ccccc4)c4ccccc4)C(C)=C1C3(C)C)[C@]1(OC(C)=O)CO[C@@H]1C[C@@H]2O` [paclitaxel] here?
A: The release profile was “acceptable”.

— patent publication US8002740B2, “Devices for maintaining patency of surgically created channels in tissue” (Broncus Technologies, Inc., priority 2003, dated 2011)
